Results reported in publication doi:10.1101/2024.08.13.607785v1 (biorxiv, 2024).
Like-named read-outs stand apart in the source and are kept apart here.

Key:
Assay in all cases: biochemical
Design in all cases: species or system human cell line lysate
[1] = biological target: Mitogen-activated protein kinase kinase kinase kinase 1 ; MAP4K1 ; Q92918 (Homo sapiens, UniProt Q92918)
[2] = biological target: Phosphatidylinositol 4-kinase alpha ; PI4KA ; P42356 (Homo sapiens, UniProt P42356)
[3] = biological target: AP2-associated protein kinase 1 ; AAK1 ; Q2M2I8 (Homo sapiens, UniProt Q2M2I8)
[4] = biological target: Isoform 3 of Citron Rho-interacting kinase ; CIT ; O14578-3 (Homo sapiens, UniProt O14578)
[5] = biological target: Inhibitor of nuclear factor kappa-B kinase subunit epsilon ; IKBKE ; Q14164 (Homo sapiens, UniProt Q14164)
[6] = biological target: Isoform 2 of Focal adhesion kinase 1 ; PTK2 ; Q05397-2 (Homo sapiens, UniProt Q05397)
[7] = biological target: MAP kinase-activated protein kinase 2 ; MAPKAPK2 ; P49137 (Homo sapiens, UniProt P49137)
[8] = biological target: Serine/threonine-protein kinase ULK2 ; ULK2 ; Q8IYT8 (Homo sapiens, UniProt Q8IYT8)
[9] = biological target: Serine/threonine-protein kinase ULK1 ; ULK1 ; O75385 (Homo sapiens, UniProt O75385)
[10] = biological target: Protein-tyrosine kinase 2-beta ; PTK2B ; Q14289 (Homo sapiens, UniProt Q14289)
[11] = biological target: Tyrosine-protein kinase JAK2 ; JAK2 ; O60674 (Homo sapiens, UniProt O60674)
[12] = biological target: Ribosomal protein S6 kinase alpha-5 ; RPS6KA5 ; O75582 (Homo sapiens, UniProt O75582)
[13] = biological target: Serine/threonine-protein kinase D1 ; PRKD1 ; Q15139 (Homo sapiens, UniProt Q15139)
[14] = biological target: cAMP-dependent protein kinase catalytic subunit alpha ; PRKACA ; P17612 (Homo sapiens, UniProt P17612)
[15] = biological target: Isoform 2 of Casein kinase I isoform delta ; CSNK1D ; P48730-2 (Homo sapiens, UniProt P48730)
[16] = biological target: Serine/threonine-protein kinase PDIK1L ; PDIK1L ; Q8N165 (Homo sapiens, UniProt Q8N165)
[17] = biological target: Citron Rho-interacting kinase ; CIT ; O14578 (Homo sapiens, UniProt O14578)
[18] = biological target: Nucleoside diphosphate kinase, mitochondrial ; NME4 ; O00746 (Homo sapiens, UniProt O00746)
[19] = biological target: T1, Serine/threonine-protein kinase NLK ; NLK ; Q9UBE8 (Homo sapiens, UniProt Q9UBE8)
T1 sequence (Q9UBE8 1-527): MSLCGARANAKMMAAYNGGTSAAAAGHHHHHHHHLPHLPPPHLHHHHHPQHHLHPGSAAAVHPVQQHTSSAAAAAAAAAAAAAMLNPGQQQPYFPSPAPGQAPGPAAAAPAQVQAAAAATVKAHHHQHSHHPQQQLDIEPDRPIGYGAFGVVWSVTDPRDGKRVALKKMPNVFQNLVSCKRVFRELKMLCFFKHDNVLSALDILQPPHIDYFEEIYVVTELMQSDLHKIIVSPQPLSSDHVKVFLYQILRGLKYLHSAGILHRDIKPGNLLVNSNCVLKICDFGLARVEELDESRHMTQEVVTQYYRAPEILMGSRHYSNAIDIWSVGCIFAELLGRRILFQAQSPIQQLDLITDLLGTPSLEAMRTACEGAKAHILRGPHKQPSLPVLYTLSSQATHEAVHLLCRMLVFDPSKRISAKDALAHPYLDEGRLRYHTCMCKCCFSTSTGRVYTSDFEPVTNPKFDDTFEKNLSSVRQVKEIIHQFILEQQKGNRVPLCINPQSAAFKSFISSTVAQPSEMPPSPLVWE

[20] = biological target: Ephrin type-A receptor 4 ; EPHA4 ; P54764 (Homo sapiens, UniProt P54764)
[21] = read-out: BAY-1143572 (10 µM) / %Intensity relative to DMSO
[22] = read-out: BAY-1251152 (10 µM) / %Intensity relative to DMSO

Chain of Serine/threonine-protein kinase D1 ; PRKD1 ; Q15139 (Q15139 whole entry, one chain of several): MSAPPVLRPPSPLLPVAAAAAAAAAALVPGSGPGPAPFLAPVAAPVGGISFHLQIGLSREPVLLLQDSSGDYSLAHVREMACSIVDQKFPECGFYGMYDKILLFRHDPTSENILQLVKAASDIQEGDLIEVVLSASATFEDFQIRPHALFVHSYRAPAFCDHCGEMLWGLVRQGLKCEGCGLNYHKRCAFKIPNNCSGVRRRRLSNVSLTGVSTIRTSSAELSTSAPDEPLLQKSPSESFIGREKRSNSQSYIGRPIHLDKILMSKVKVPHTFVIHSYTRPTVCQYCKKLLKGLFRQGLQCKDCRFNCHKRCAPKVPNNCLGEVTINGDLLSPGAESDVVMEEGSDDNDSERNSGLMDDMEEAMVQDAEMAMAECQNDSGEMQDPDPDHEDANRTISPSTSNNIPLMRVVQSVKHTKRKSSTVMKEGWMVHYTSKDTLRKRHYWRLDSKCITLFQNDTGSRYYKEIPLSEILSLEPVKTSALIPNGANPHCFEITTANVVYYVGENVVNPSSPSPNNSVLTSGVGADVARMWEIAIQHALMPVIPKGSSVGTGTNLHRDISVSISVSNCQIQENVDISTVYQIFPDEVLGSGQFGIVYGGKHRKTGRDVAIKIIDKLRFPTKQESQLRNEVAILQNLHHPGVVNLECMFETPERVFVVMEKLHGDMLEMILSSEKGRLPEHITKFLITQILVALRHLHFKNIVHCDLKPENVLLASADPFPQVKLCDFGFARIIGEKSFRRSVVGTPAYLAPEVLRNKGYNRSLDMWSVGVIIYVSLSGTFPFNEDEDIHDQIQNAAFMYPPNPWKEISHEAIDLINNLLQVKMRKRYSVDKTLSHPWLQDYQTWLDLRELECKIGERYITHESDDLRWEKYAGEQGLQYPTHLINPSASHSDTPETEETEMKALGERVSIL
Chain of Citron Rho-interacting kinase ; CIT ; O14578 (O14578 whole entry): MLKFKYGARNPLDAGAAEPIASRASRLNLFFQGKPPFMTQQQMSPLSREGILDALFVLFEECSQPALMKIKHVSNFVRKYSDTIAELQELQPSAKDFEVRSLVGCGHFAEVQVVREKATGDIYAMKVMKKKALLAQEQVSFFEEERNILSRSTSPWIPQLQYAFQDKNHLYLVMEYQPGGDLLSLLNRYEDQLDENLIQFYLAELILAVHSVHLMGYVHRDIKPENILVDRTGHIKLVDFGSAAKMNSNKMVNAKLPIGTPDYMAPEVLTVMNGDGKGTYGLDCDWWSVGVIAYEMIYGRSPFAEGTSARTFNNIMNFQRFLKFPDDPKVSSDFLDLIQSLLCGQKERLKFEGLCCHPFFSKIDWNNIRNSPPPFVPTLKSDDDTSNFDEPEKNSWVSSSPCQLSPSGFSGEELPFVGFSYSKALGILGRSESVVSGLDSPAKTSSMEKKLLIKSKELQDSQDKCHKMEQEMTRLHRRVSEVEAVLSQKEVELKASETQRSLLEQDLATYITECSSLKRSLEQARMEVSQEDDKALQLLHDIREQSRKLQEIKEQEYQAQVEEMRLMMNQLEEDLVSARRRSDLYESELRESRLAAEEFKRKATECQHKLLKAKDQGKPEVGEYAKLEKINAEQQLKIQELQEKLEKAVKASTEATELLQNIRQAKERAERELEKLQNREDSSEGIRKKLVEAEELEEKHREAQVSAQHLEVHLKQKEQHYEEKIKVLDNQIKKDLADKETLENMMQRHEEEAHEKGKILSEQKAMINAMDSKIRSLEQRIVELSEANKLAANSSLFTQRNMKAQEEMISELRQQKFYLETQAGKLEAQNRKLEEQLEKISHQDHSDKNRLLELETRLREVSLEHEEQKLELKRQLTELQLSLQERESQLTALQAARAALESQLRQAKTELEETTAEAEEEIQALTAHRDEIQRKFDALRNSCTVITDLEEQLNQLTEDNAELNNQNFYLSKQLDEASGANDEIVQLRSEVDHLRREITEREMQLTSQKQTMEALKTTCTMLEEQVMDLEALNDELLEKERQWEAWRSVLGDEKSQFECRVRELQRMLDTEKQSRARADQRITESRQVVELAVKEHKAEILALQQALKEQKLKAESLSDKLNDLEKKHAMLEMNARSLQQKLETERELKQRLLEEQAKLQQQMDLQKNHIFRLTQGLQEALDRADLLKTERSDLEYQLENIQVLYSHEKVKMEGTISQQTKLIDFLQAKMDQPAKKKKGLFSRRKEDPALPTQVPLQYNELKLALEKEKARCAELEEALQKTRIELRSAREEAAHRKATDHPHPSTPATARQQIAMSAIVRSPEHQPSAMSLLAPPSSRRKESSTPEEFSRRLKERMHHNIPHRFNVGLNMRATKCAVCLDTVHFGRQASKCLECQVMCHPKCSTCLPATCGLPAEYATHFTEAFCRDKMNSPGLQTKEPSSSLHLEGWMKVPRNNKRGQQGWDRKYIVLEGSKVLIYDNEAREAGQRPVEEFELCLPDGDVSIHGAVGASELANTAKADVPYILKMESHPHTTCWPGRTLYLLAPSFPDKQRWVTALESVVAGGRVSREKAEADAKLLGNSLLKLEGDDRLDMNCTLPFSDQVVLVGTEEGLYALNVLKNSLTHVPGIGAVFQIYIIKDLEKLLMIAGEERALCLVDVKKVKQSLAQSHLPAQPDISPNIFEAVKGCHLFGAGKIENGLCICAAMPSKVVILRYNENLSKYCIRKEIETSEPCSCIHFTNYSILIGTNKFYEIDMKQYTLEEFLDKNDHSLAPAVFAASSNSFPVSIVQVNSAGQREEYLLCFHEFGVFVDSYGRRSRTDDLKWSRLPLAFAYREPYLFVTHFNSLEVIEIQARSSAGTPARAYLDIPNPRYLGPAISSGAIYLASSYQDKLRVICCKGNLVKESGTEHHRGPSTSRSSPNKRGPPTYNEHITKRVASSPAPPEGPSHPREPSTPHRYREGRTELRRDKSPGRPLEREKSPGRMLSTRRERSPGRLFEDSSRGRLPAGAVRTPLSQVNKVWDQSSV
Chain of Isoform 3 of Citron Rho-interacting kinase ; CIT ; O14578-3 (O14578 whole entry, canonical isoform, one chain of several): as the sequence (O14578 whole entry) above
Chain of Nucleoside diphosphate kinase, mitochondrial ; NME4 ; O00746 (O00746 whole entry): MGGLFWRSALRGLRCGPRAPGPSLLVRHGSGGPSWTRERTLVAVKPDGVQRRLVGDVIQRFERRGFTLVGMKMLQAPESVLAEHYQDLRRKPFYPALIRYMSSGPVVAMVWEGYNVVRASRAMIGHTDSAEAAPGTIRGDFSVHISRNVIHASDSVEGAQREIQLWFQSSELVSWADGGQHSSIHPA
Chain of Protein-tyrosine kinase 2-beta ; PTK2B ; Q14289 (Q14289 whole entry): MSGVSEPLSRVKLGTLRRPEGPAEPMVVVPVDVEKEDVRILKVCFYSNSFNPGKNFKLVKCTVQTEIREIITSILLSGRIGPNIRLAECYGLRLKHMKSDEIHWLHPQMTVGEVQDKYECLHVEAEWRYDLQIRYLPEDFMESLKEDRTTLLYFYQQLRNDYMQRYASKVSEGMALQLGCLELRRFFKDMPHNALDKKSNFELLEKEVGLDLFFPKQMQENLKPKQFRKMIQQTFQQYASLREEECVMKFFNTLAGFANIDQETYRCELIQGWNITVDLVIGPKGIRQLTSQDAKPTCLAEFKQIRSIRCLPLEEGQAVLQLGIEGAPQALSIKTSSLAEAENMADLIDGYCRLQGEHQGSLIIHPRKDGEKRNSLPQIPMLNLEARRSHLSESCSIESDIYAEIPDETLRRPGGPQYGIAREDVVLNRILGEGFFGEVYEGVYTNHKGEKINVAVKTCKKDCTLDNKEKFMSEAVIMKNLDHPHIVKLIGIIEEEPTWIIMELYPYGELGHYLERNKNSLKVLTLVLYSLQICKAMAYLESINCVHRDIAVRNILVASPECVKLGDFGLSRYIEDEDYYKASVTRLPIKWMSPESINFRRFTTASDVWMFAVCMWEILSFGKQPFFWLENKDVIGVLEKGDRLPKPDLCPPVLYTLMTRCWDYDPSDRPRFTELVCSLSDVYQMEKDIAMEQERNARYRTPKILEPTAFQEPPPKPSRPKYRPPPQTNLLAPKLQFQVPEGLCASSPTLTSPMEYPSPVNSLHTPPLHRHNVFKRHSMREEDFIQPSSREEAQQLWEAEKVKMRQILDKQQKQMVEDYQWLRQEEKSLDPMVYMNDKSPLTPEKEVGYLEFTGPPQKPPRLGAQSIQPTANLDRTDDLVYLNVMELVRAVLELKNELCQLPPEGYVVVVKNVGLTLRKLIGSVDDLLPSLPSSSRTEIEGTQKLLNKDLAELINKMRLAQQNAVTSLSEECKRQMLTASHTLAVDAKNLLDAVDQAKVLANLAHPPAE
Chain of Ribosomal protein S6 kinase alpha-5 ; RPS6KA5 ; O75582 (O75582 whole entry): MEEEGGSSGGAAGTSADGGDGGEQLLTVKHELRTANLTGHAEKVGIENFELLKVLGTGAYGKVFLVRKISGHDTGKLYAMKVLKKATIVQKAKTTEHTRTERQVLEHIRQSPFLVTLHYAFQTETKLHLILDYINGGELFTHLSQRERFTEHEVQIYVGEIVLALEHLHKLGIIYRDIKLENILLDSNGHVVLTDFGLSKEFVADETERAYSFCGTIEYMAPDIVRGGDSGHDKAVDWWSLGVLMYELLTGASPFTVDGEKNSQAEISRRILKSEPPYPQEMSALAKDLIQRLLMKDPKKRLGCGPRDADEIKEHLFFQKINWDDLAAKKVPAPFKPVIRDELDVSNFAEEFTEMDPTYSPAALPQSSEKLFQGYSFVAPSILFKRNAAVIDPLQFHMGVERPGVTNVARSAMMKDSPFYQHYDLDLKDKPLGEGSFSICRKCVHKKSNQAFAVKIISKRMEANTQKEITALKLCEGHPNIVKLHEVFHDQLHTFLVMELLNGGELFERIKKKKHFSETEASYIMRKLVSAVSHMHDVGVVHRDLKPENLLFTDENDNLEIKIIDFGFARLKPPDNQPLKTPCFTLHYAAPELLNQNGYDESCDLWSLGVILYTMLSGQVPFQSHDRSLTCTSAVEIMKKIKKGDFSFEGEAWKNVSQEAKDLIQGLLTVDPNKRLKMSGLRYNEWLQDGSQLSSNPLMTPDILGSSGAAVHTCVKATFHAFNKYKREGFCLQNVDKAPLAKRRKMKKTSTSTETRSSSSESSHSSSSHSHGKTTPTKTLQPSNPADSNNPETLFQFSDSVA

Which results are given for `COc1cc(F)ccc1-c1ncnc(Nc2cccc(C[S@](C)(=N)=O)c2)n1` [BAY-1143572]?
remaining activity at 10 µM [1, 21]: 101%; remaining activity at 10 µM [2, 21]: 96.8%; remaining activity at 10 µM [3, 21]: 80.2%; remaining activity at 10 µM [4, 21]: 99.1%; remaining activity at 10 µM [5, 21]: 110%; remaining activity at 10 µM [6, 21]: 80.9%; remaining activity at 10 µM [7, 21]: 128%; remaining activity at 10 µM [8, 21]: 92.9%; remaining activity at 10 µM [9, 21]: 132%; remaining activity at 10 µM [10, 21]: 217%; remaining activity at 10 µM [11, 21]: 95.1%; remaining activity at 10 µM [12, 21]: 109%; remaining activity at 10 µM [13, 21]: 155%; remaining activity at 10 µM [14, 21]: 115%; remaining activity at 10 µM [15, 21]: 108%; remaining activity at 10 µM [16, 21]: 119%; remaining activity at 10 µM [17, 21]: 99.8%; remaining activity at 10 µM [18, 21]: 79.4%; remaining activity at 10 µM [19, 21]: 103%; remaining activity at 10 µM [20, 21]: 91.7%

For `COc1cc(F)ccc1-c1cc(Nc2cc(CS(C)(=N)=O)ccn2)ncc1F` (stereo not shown) [BAY-1251152], which remaining activity at 10 µM [1, 22] is on record?
The remaining activity at 10 µM was 71.6%.

And the remaining activity at 10 µM [2, 22]?
The remaining activity at 10 µM was 100%.

What about the remaining activity at 10 µM [3, 22] of the same molecule?
The remaining activity at 10 µM was 87.9%.

What about the remaining activity at 10 µM [4, 22] of the same molecule?
Its remaining activity at 10 µM is 89.3%.

What about the remaining activity at 10 µM [5, 22] of the same molecule?
Its remaining activity at 10 µM is 112%.

What about the remaining activity at 10 µM [6, 22] of the same molecule?
The remaining activity at 10 µM was 85%.

And the remaining activity at 10 µM [7, 22]?
The remaining activity at 10 µM was 119%.

And the remaining activity at 10 µM [8, 22]?
Its remaining activity at 10 µM is 104%.

What about the remaining activity at 10 µM [9, 22] of the same molecule?
Its remaining activity at 10 µM is 145%.

And the remaining activity at 10 µM [10, 22]?
Its remaining activity at 10 µM is 176%.

And the remaining activity at 10 µM [11, 22]?
The remaining activity at 10 µM was 95.9%.

And the remaining activity at 10 µM [12, 22]?
The remaining activity at 10 µM was 110%.

What about the remaining activity at 10 µM [13, 22] of the same molecule?
Its remaining activity at 10 µM is 154%.

What about the remaining activity at 10 µM [14, 22] of the same molecule?
Its remaining activity at 10 µM is 101%.

And the remaining activity at 10 µM [15, 22]?
Its remaining activity at 10 µM is 105%.

And the remaining activity at 10 µM [16, 22]?
Its remaining activity at 10 µM is 129%.

And the remaining activity at 10 µM [17, 22]?
The remaining activity at 10 µM was 92.5%.

And the remaining activity at 10 µM [18, 22]?
The remaining activity at 10 µM was 94.8%.

And the remaining activity at 10 µM [19, 22]?
Its remaining activity at 10 µM is 115%.

And the remaining activity at 10 µM [20, 22]?
Its remaining activity at 10 µM is 105%.
